Measurements from patent US20160228444A1, “NUCLEOSIDE ANALOGS AND USES THEREOF” (Ramot at Tel-Aviv University Ltd., priority 2015, published 2016).
Like-named read-outs stand apart in the source and are kept apart here.

Legend:
[1] = tested on: U251 cells; experiment: Hoechst viability assay 72 h / median-effect combination study; settings: Homo sapiens, U-251, 72 h, read-out: IC50 value for viability in U251 cells after 72 hours
Experimental: Hoechst assay: 22RV-1, MCF-7, MCF-7DX, 4T1, U251, and T47D cells (3×10^3 cells/well) and NCI-N87 (8×10^3 cells/well) were seeded in tissue culture in growth medium for 24 h in 96-well plates (in triplicate) and then exposed to different concentrations (titration) of the tested drug for 72 h at 37° C. The plates were then rinsed with PBS and fixed with 100 ml of 70% ethanol for 30 min. […] The fluorescence was measured (excitation at 390 nm and emission at 460 nm) with a Synergy III Fluorometer-Elisa reader (BioTek Instruments, Inc. Germany).
The Median Effect Analysis (MEA) for a constant combination ratio was used for drugs interaction and the combination index (CI) determination.
The average values of three independent experiments were calculated and analyzed with CalcuSyn software.

[2] = tested on: TLR4; settings: 24 hours, concentrations based on the IC50, FIG. 15
[3] = tested on: TLR4; experiment: TLR4 gene expression in MDA-MB-231 cells (qRT-PCR); type: cell-based, human; settings: single agent, FIG. 7C
Experimental: (§1) The effect of AN446 on inflammation-associated pathways was evaluated in the monocytic THP1 cell line and in the MDA-MB-231 breast carcinoma cell line. Supernatants of treated THP1 cells were collected and IL-6, IL-10 and TNF-α concentrations were quantified by ELISA (R&D systems). TLR4 expression in THP1 cells was assessed using fluorescent anti-TLR4 antibodies and FACS analysis. In addition, gene expression for MCP-1, TNF-α and TLR4 in MDA-MB-231 was evaluated by qRT-PCT, following treatment with AN446 and/or paclitaxel.

[4] = tested on: TNF-α; experiment: TNF-α gene expression in MDA-MB-231 cells (qRT-PCR); type: cell-based, human; settings: single agent, FIG. 7C
Experimental: as §1

[5] = tested on: MCP-1; experiment: MCP-1 gene expression in MDA-MB-231 cells (qRT-PCR); type: cell-based, human; settings: single agent, FIG. 7C
Experimental: as §1

[6] = tested on: NCI-N87 gastric carcinoma cells; experiment: Median-effect drug interaction, Hoechst viability, 72 h; type: cell-based, human; settings: Homo sapiens
Experimental: (§2) The ratios of the drug combination were based on the ratio of their IC50 of each drug alone. Cell viability was determined by MTT assay, as described hereinabove. The drugs were added to the cells and incubated for 72 h.
(§3) Drug interaction in adherent cells was evaluated as above except that the viability was determined by Hoechst assay.

[7] = tested on: T47D cells; experiment: as above; type: cell-based, human; settings: for IC50: Homo sapiens
Experimental: as §2, §3

[8] = tested on: MDA-231 cells; experiment: as above; type: cell-based, human; settings: for IC50: Homo sapiens
Experimental: as §2, §3

[9] = tested on: VEGF; experiment: VEGF immunohistochemistry in tumor and heart of xenograft mice; type: in vivo; settings: FIG. 4F
Experimental: (§4) The pro-angiogenic factors basic fibroblast growth factor (bFGF) and vascular endothelial growth factor (VEGF) are potent angiogenic stimulators. The expression of bFGF in the tumor and in the heart was evaluated by Western blot and qRT-PCR analyses and expression of VEGF by IHC.

[10] = tested on: U251 human glioblastoma xenograft; experiment: Glioblastoma xenograft model (survival, body weight, tumor volume, tumor weight, Ki-67); settings: for tumor volume of vehicle-treated group relative to treated group: from day 11, FIG. 3C
Experimental: Xenograft of glioblastoma: 8- to 10-week-old male Hsd athymic FOXN (Harlan, Jerusalem, Israel) were inoculated sc in the flanks with 5×10^6 U251 cells. Tumor length (L) and width (W) were measured with a caliper twice weekly. Tumor volumes were calculated according to the formula: (L×W2)/2. When the tumor was established (volume of 50-100 mm^3) the mice were randomly divided into six groups treated with: vehicle control (saline); ip Dox 4 mg/kg once weekly; po AN446 25 mg/kg thrice a week; po AN7 50 mg/kg thrice a week; combination of AN446+Dox (4 mg/kg ip Dox once a week and 25 mg/kg po AN446 thrice a week); AN7+Dox (4 mg/kg ip Dox once a week and 50 mg/kg po AN7 thrice weekly). Untreated, non-bearing tumor naive mice were maintained under the same conditions. The experiment was terminated after 25 treatment days, the mice were sacrificed under CO2 and their tumors and hearts were removed, weighed and divided into parts dedicated for immunohistochemistry (IHC) and the rest were frozen (−80° C.) for Western blot and Quantitative PCR (qRT-PCR) analyses.
Inactivation of avidin-biotin nonspecific binding was prevented by a blocking kit, according to the manufacturer's protocol (Vector Laboratories). […] The secondary antibody was biotin conjugated goat anti-rabbit or anti-mouse IgG. Slides were then stained with the ABC peroxidase system, developed with diaminobenzidine (DAB) (Vector Laboratories) and counterstained with hematoxylin (Bio-Optica, Milano, Italy). The slides were examined using an Olympus BX 52 light microscope, and images were taken with an Olympus DP50 digital camera system.
Mice were implanted subcutaneously with U251 cells and when the tumors reached 50-100 mm^3 treatments were initiated. Survival was evaluated by the Kaplan-Meier end-product analysis, where treatment failure (the experimental end points) was a loss of ˜20% body weight, or a tumor volume of >1 cm^3.

[11] = tested on: c-Myc; experiment: c-Myc and p-c-Myc (Thr 58) Western blot in tumor and heart of xenograft mice; type: in vivo
Experimental: (§5) Protein levels in the samples were determined with the BCA protein assay kit (Pierce). The samples were subjected to Western blot analyses. The expression of proteins was visualized using their specified primary antibodies followed by the secondary IgG IRDye® 680DX antibody. Each detected band was quantified using the Odyssey Infrared Imaging System (LI-COR Biosciences) and normalized to the level of actin. The fold increase of a specific protein was determined by the ratio of the band intensity obtained from treated and untreated samples.
The c-Myc protein is an important regulator of normal cell physiology and in tumor cells it plays an important role in activating oncogenic pathways [Soucek & Evan, Curr Opin Genet Dev 2010, 20:91-95].

[12] = tested on: HO-1; experiment: HO-1 protein and mRNA in tumor and heart of xenograft mice (Western blot, qRT-PCR); type: in vivo; settings: heart
Experimental: (§6) Tumors and hearts of the mice were rapidly removed, frozen on dry ice and kept at −70° C. Tissue was then homogenized and RNA and proteins extracted using the NucleoSpin® RNA/Protein kit according to the manufacturer's protocol (Macherey-Nagel, GmbH & Co KG).
(§7) Total RNA ([…]) was primed by oligo dT and reverse-transcribed by Verso cDNA kit according to the manufacturer's protocol (Thermo Scientific). Analyses of qPCR were performed with Kapa Sybr® Fast (Kapa Biosystems) on a Step One Plus thermocycler (Applied Biosystems). The comparative threshold method was used to calculate the relative gene expression. Values were normalized against glyceraldehyde 3-phosphate dehydrogenase (GAPDH). Expression of the GAPDH mRNA in each individual sample was used to normalize the dataset. The sequences of the primers were as follows: […]
as §5
The effect of the drugs on the expression of genes associated with cell survival and death was examined by following changes in transcription and protein expression in tissue samples taken from the mice with glioblastoma xenografts. Heme oxygenase (HO-1) is known to play a protective role in the heart, whereas, in many cancers it is expressed and promotes growth and survival of neoplastic cells.

[13] = tested on: bFGF; experiment: bFGF protein and mRNA in tumor and heart of xenograft mice (Western blot, qRT-PCR); type: in vivo; settings: for expression of mouse bFGF protein in the heart: FIG. 4D; for expression of bFGF in tumors / bFGF mRNA in the tumor: tumor; for bFGF mRNA in the tumor: FIG. 6
Experimental: as §6, §7, §5, §4

**Q.** For `Nc1ccccc1NC(=O)c1ccc(CNC(=O)OCc2cccnc2)cc1` [entinostat], which IC50 [1] is on record?
**A.** 2 µM

**Q.** And the “TLR4 expression in MDA-231 cells” value [2]?
**A.** no apparent effect on TLR4 expression

**Q.** What does the source list for `CC(=O)O[C@H]1C(=O)[C@@]2(C)[C@H]([C@H](OC(=O)c3ccccc3)[C@]3(O)C[C@H](OC(=O)[C@H](O)[C@@H](NC(=O)c4ccccc4)c4ccccc4)C(C)=C1C3(C)C)[C@]1(OC(C)=O)CO[C@@H]1C[C@@H]2O` [Paclitaxel, paclitaxel]?
**A.** expression of TLR4 [3]: paclitaxel-induced increase; expression of TNF-α [4]: paclitaxel-induced increase; expression of MCP-1 [5]: paclitaxel-induced increase; IC50 ([6]; NCI-N87, paclitaxel in combination with AN446, read-out: Paclitaxel com IC50): 0.0018 ± 0.0002 µM; IC50 ([6]; NCI-N87, single agent, read-out: Paclitaxel IC50): 0.004 µM; IC50 ([7]; paclitaxel in combination with AN446, read-out: Paclitaxel com IC50): 0.0028 ± 0.0001 µM; IC50 ([7]; paclitaxel in combination with SAHA, read-out: Paclitaxel com IC50): 0.0023 ± 1e-05 µM; IC50 ([7]; paclitaxel in combination with valproic acid, read-out: Paclitaxel com IC50): 0.0036 ± 0.0001 µM; IC50 ([7]; single agent, read-out: Paclitaxel IC50): 0.0032 ± 0.0001 µM; IC50 ([8]; MDA-MB-231, MDA-231, paclitaxel in combination with AN446, read-out: Paclitaxel com IC50): 0.0017 ± 1e-05 µM; IC50 ([8]; MDA-MB-231, MDA-231, paclitaxel in combination with SAHA, read-out: Paclitaxel com IC50): 0.0015 µM; IC50 ([8]; MDA-MB-231, MDA-231, paclitaxel in combination with valproic acid, read-out: Paclitaxel com IC50): 0.0016 ± 1e-05 µM; IC50 ([8]; MDA-MB-231, MDA-231, single agent, read-out: Paclitaxel IC50): 0.0044 ± 0.0002 µM

**Q.** For `C/C=C1\NC(=O)[C@H]2CSSCC/C=C/[C@H](CC(=O)N[C@H](C(C)C)C(=O)N2)OC(=O)[C@H](C(C)C)NC1=O` [romidepsin], which IC50 [1] is on record?
**A.** 0.001 µM

**Q.** For `O=C(CCCCCCC(=O)Nc1ccccc1)NO` [SAHA, suberanilohydroxamic acid], which “TLR4 expression in MDA-231 cells” value [2] is on record?
**A.** no apparent effect on TLR4 expression

**Q.** What about the IC50 ([7]; in combination with Dox, read-out: com IC50) of the same molecule?
**A.** 0.13 µM

**Q.** With `CCCC(CCC)C(=O)O` [Valproic acid, valproic acid] as the molecule, how does the IC50 [1] read?
**A.** 3000 µM

**Q.** And the “CI (combination index with paclitaxel)” value [7]?
**A.** 1.1

**Q.** And the IC50 ([7]; in combination with paclitaxel, read-out: com IC50)?
**A.** 1800 ± 100 µM

**Q.** And the IC50 ([7]; single agent, Table 3, read-out: IC50)?
**A.** 4400 ± 300 µM

**Q.** And the IC50 ([8]; MDA-MB-231, MDA-231, in combination with paclitaxel, read-out: com IC50)?
**A.** 1600 ± 10 µM

**Q.** And the IC50 ([8]; MDA-MB-231, MDA-231, single agent, Table 3, read-out: IC50)?
**A.** 3900 ± 200 µM

**Q.** And the “CI (combination index with paclitaxel)” value ([8]; MDA-231)?
**A.** 0.8

**Q.** With `CCCC(=O)OCOP(=O)(OCC)OCC` [AN7, butyroxymethyl diethylphosphate] as the molecule, how does the “VEGF expression in the heart” value [9] read?
**A.** elevated

**Q.** What about the “survival of mice when added to Dox treatment” value ([10]; added to Dox 4 mg/kg ip once a week, day 25, FIG. 3A) of the same molecule?
**A.** 100%

**Q.** What about the “body weight loss when added to Dox treatment” value ([10]; added to Dox 4 mg/kg, FIG. 3B) of the same molecule?
**A.** significant attenuation of body weight loss

**Q.** And the “Ki-67 positive (proliferating) cells in tumors” value ([10]; in combination with Dox, FIG. 3F)?
**A.** reduced the proliferating cells to a level significantly lower than any of the single drug treatments

**Q.** What about the “tumor volume of vehicle-treated group relative to treated group” value ([10]; in combination with Dox) of the same molecule?
**A.** 3 fold

**Q.** What about the “Ki-67 positive cells in tumors” value ([10]; single agent vs vehicle, FIGS. 3E, 3F) of the same molecule?
**A.** considerably more Ki-67 positive cells were detected in tumors of the vehicle-treated mice

**Q.** And the “tumor volume of vehicle-treated group relative to treated group” value ([10]; single agent)?
**A.** 2 fold

**Q.** And the “survival of mice until end of experiment (day 25)” value ([10]; single agent: AN446 25 mg/kg or AN7 50 mg/kg po thrice weekly, Dox 4 mg/kg ip once a week, FIG. 3A)?
**A.** 100%

**Q.** And the “c-Myc protein expression in the hearts” value ([11]; heart, FIG. 5B)?
**A.** not affected

**Q.** What about the “c-Myc protein expression in tumors” value ([11]; tumor, FIG. 5A) of the same molecule?
**A.** decreased dramatically

**Q.** And the “HO-1 expression in the heart” value ([12]; co-treatment with Dox)?
**A.** increased the expression of this enzyme to a significantly higher level

**Q.** And the “HO-1 mRNA in the heart, elevation of basal expression level” value ([12]; co-treatment with Dox)?
**A.** 1.76±0.36 fold

**Q.** And the “HO-1 expression in the heart (decrease)” value ([12]; single agent, FIGS. 4D, 4E)?
**A.** did not significantly change

**Q.** And the “expression of mouse bFGF protein in the heart” value ([13]; co-treatment with Dox)?
**A.** significantly increased its expression to a level higher than that observed in naive or vehicle-treated mice

**Q.** What about the “expression of mouse bFGF protein in the heart” value ([13]; single agent) of the same molecule?
**A.** unchanged

**Q.** What about the “expression of bFGF in tumors” value ([13]; combination with Dox) of the same molecule?
**A.** further diminished

**Q.** And the “bFGF mRNA in the tumor” value ([13]; combined treatment with Dox)?
**A.** suppressed it significantly further

**Q.** And the “bFGF mRNA in the tumor” value ([13]; single agent)?
**A.** significantly reduced the bFGF mRNA

**Q.** And the “expression of bFGF in tumors” value ([13]; single agent, FIGS. 4A, 4B)?
**A.** decreased significantly
